According to patent US20230192676A1, “Heterocyclic Amides as Kinase Inhibitors” (GLAXOSMITHKLINE INTELLECTUAL PROPERTY DEVELOPMENT LIMITED, priority 2017, published 2023):

System: U937 cells
Assay: necroptosis assay in human monocytic leukemia U937 cells (Cell Titer-Glo ATP viability readout)
Type: cell-based
Conditions: U-937, viability by cellular ATP (Cell Titer-Glo), values approximate, read-out: pIC50, inhibition of necrosis in U937 cells (converted)
Protocol: The efficacy of RIP1 inhibitors can be tested in […] in vitro using a human monocytic leukemia U937 in a necroptosis assay. As determined using the method described in S. He et al., Cell, 137(6):1100-1111 (2009) and International Patent Appln. No. PCT/IB2014/059004, now, International Patent Appln. Pub.
Viability was measured by quantitating cellular levels of ATP using the Cell Titer-Glo kit. All data are means±standard deviation of the mean.

CC(=O)N1CCC(C(=O)N2OCC[C@H]2c2cc(F)cc(F)c2)CC1 [Example 2, (S)-1-(4-(3-(3,5-difluorophenyl)isoxazolidine-2-carbonyl)piperidin-1-yl)ethan-1-one]
IC50: 1 to 100 nM

NC(=O)c1cc(N2CCC(C(=O)N3OCC[C@H]3c3cc(F)cc(F)c3)CC2)ncn1 [Example 4, (S)-6-(4-(3-(3,5-difluorophenyl)isoxazolidine-2-carbonyl)piperidin-1-yl)pyrimidine-4-carboxamide]
IC50: 1 to 100 nM

Cc1nnc(N2CCC(C(=O)N3OCC[C@H]3c3cc(F)cc(F)c3)CC2)o1 [Example 5, (S)-(3-(3,5-difluorophenyl)isoxazolidin-2-yl)(1-(5-methyl-1,3,4-oxadiazol-2-yl)piperidin-4-yl)methanone]
IC50: 1 to 100 nM

N#Cc1cc(N2CCC(C(=O)N3OCC[C@H]3c3cc(F)cc(F)c3)CC2)ncn1 [Example 8, (S)-6-(4-(3-(3,5-difluorophenyl)isoxazolidine-2-carbonyl)piperidin-1-yl)pyrimidine-4-carbonitrile]
IC50: 1 to 100 nM

CNC(=O)c1cc(N2CCC(C(=O)N3OCC[C@H]3c3cc(F)cc(F)c3)CC2)ncn1 [Example 9, (S)-6-(4-(3-(3,5-difluorophenyl)isoxazolidine-2-carbonyl)piperidin-1-yl)-N-methylpyrimidine-4-carboxamide]
IC50: 1 to 100 nM

CN(C)C(=O)c1cc(N2CCC(C(=O)N3OCC[C@H]3c3cc(F)cc(F)c3)CC2)ncn1 [Example 10, (S)-6-(4-(3-(3,5-difluorophenyl)isoxazolidine-2-carbonyl)piperidin-1-yl)-N,N-dimethylpyrimidine-4-carboxamide]
IC50: 1 to 100 nM

Cc1nnc(N2CC[C@H](C(=O)N3OCC[C@@H]3c3cc(F)cc(F)c3)[C@H](F)C2)o1 [Example 16, ((R)-3-(3,5-difluorophenyl)isoxazolidin-2-yl)((3S,4R)-3-fluoro-1-(5-methyl-1,3,4-oxadiazol-2-yl)piperidin-4-yl)methanone]
IC50: 1 to 100 nM

Cc1nnc(N2CC[C@@H](C(=O)N3OCC[C@@H]3c3cc(F)cc(F)c3)[C@@H](F)C2)o1 [Example 18, ((R)-3-(3,5-difluorophenyl)isoxazolidin-2-yl)((3R,4S)-3-fluoro-1-(5-methyl-1,3,4-oxadiazol-2-yl)piperidin-4-yl)methanone]
IC50: 1 to 100 nM

O=C([C@H]1CCN(c2nnco2)C[C@H]1F)N1OCC[C@@H]1c1cc(F)cc(F)c1 [Example 22, ((R)-3-(3,5-difluorophenyl)isoxazolidin-2-yl)((3S,4R)-3-fluoro-1-(1,3,4-oxadiazol-2-yl)piperidin-4-yl)methanone]
IC50: 1 to 100 nM

NC(=O)c1cc(N2CC[C@H](C(=O)N3OCC[C@@H]3c3cc(F)cc(F)c3)[C@H](F)C2)ncn1 [Example 26, 6-((3S,4R)-4-((R)-3-(3,5-difluorophenyl)isoxazolidine-2-carbonyl)-3-fluoropiperidin-1-yl)pyrimidine-4-carboxamide]
IC50: 1 to 100 nM

CNC(=O)c1cc(N2CC[C@H](C(=O)N3OCC[C@@H]3c3cc(F)cc(F)c3)[C@H](F)C2)ncn1 [Example 30, 6-((3S,4R)-4-((R)-3-(3,5-difluorophenyl)isoxazolidine-2-carbonyl)-3-fluoropiperidin-1-yl)-N-methylpyrimidine-4-carboxamide]
IC50: 1 to 100 nM

CNC(=O)c1cc(N2CC[C@@H](C(=O)N3OCC[C@@H]3c3cc(F)cc(F)c3)[C@@H](F)C2)ncn1 [Example 32, 6-((3R,4S)-4-((R)-3-(3,5-difluorophenyl)isoxazolidine-2-carbonyl)-3-fluoropiperidin-1-yl)-N-methylpyrimidine-4-carboxamide]
IC50: 1 to 100 nM

CN(C)C(=O)c1cc(N2CC[C@H](C(=O)N3OCC[C@@H]3c3cc(F)cc(F)c3)[C@H](F)C2)ncn1 [Example 34, 6-((3S,4R)-4-((R)-3-(3,5-difluorophenyl)isoxazolidine-2-carbonyl)-3-fluoropiperidin-1-yl)-N,N-dimethylpyrimidine-4-carboxamide]
IC50: 1 to 100 nM

CN(C)C(=O)c1cc(N2CC[C@H](C(=O)N3OCC[C@H]3c3cc(F)cc(F)c3)[C@H](F)C2)ncn1 [Example 35, 6-((3S,4R)-4-((S)-3-(3,5-difluorophenyl)isoxazolidine-2-carbonyl)-3-fluoropiperidin-1-yl)-N,N-dimethylpyrimidine-4-carboxamide]
IC50: 1 to 100 nM

C[S@@+]([O-])c1cc(N2CC[C@H](C(=O)N3OCC[C@@H]3c3cc(F)cc(F)c3)[C@H](F)C2)ncn1 [Example 44, ((R)-3-(3,5-difluorophenyl)isoxazolidin-2-yl)((3S,4R)-3-fluoro-1-(6-((R)-methylsulfinyl)pyrimidin-4-yl)piperidin-4-yl)methanone]
IC50: 1 to 100 nM

C[S@+]([O-])c1cc(N2CC[C@@H](C(=O)N3OCC[C@@H]3c3cc(F)cc(F)c3)[C@@H](F)C2)ncn1 [Example 46, ((R)-3-(3,5-difluorophenyl)isoxazolidin-2-yl)((3R,4S)-3-fluoro-1-(6-((S)-methylsulfinyl)pyrimidin-4-yl)piperidin-4-yl)methanone]
IC50: 1 to 100 nM
